Like-named read-outs stand apart in the source and are kept apart here.
Key:
[1] = tested on: phosphorylation of SLP76-S376; assay: TCR-induced p-SLP76-S376 in Jurkat cells after OKT3 stimulation (flow cytometry); assay type: cell-based; conditions: Homo sapiens; Jurkat cells pretreated 24 h, OKT3 stimulation 30 min
Protocol: (§1) Jurkat cells (ATCC, Manassas, VA, USA) and human peripheral blood mononuclear cells (PBMCs) were cultured in RPMI-1640 medium (Thermo Fisher Scientific, Waltham, MA, USA) supplemented with 10% heat-inactivated fetal bovine serum (Thermo Fisher) and 1% penicillin–streptomycin (Thermo Fisher Scientific) at 37°C in a humidified incubator with 5% CO2. The density of Jurkat cells was adjusted to 1 × 10^6/mL 24 h before conducting the experiment. Cryopreserved human PBMCs were purchased from Oribiotech (Shanghai, China); they were freshly thawed and cultured overnight prior to performing the experiment.
(§2) Jurkat cells or human PBMCs were pretreated in triplicates or quadruplicates with dimethyl sulfoxide or compounds for 24 h. For p-SLP76-S376 analysis, the cells were activated for 30 min with OKT3. For granzyme B and perforin analysis of human PBMCs, ultra-high binding 96-well plates (Corning Inc., Corning, NY, USA) were precoated with OKT3 overnight at 4°C. Human PBMCs were pretreated in quadruplicates with dimethyl sulfoxide or compounds for 24 h. The cells were then activated for another 24 h with precoated OKT3, followed by 2 h treatment with Protein Transport Inhibitor Cocktail (Thermo Fisher). The stimulated cells were fixed with BD Phosflow™ Lyse/Fix buffer (BD Biosciences, San Diego, CA, USA), washed and permeabilized with BD Perm Buffer III (BD Biosciences), and subsequently stained with a fluorescence-conjugated antibody against HPK1 (E1C3L; Cell Signaling Technology), p-SLP76-S376 (E3G9U; Cell Signaling Technology), granzyme B (GB11, BioLegend, San Diego, CA, USA), perforin (dG9, BioLegend) and anti-human CD3 (SK7, BioLegend), CD4 (SK3, BioLegend) and CD8 (SK1, BioLegend) for primary T cells. This was followed by data acquisition and analysis with the BD FACSymphony™ A1 Cell Analyzer (BD Biosciences).

Jurkat cells = assay: IL-2 production by Jurkat cells stimulated with immobilized OKT3; assay type: cell-based, human; conditions: Jurkat cells pretreated 24 h, immobilized OKT3 24 h
Protocol: as §1
Jurkat cells were seeded in triplicates into those plates for stimulation and incubated for 24 h. Alternatively, Jurkat cells were pretreated with various concentrations of the aforementioned compounds for 24 h prior to stimulation with aforementioned immobilized OKT3. For cytokine analysis of human PBMCs, the cells were seeded into U-bottomed 96-well plates (Corning Inc.) and treated with the compounds for 24 h prior to stimulation. Next, the cells were stimulated by co-culture with HEK293/OS8/PD-L1 cells in the U-bottomed 96-well plates for another 24 h. HEK293/OS8/PD-L1 is a HEK293 cell line edited to stably co-express human PD-L1 (programmed death ligand 1) and single chain fragment variable (scFv) of OKT3 fused with transmembrane and cytoplasmic domains of murine CD8α, as previously described ([21]). Interleukin 2 (IL-2) and interferon-gamma (IFN-γ) in the supernatant were detected using the HTRF Human IL-2 Detection Kit and AlphaLISA Biotin-Free Human IFNγ Detection Kit (both obtained from Revvity, Waltham, MA, USA) according to the instructions provided by the manufacturer. Data were acquired with PHERAstar FSX (BMG LABTECH Inc., Cary, NC, USA).

[2] = tested on: phosphorylation of SLP76-S376; assay: TCR-induced p-SLP76-S376 in CD4+ and CD8+ T cells of human PBMCs (flow cytometry); assay type: cell-based; conditions: for TCR-induced phosphorylation on SLP76-S376: 24 h pretreatment
Protocol: as §1, §2

HepG2 cells = assay: Real-time cell mediated cytotoxicity assay (xCELLigence RTCA), PBMC killing of HepG2; assay type: cell-based; conditions: PBMC:HepG2 5:1, compared to DMSO-pretreated PBMCs, up to 6 days post TCR stimulation
Protocol: For in vitro HepG2 cell killing, human PBMCs were pretreated in quadruplicates with dimethyl sulfoxide or compounds for 24 h, followed by stimulation by OKT3 for another 24 h. HepG2 cells were seeded at 2 × 10^4/well in a RTCA 96-well-E plate (Agilent Technologies, Sana Clara, CA, USA). 24 h after HepG2 seeding, the stimulated PBMCs were added at a PBMC: HepG2 cells ratio of 5:1. Target cell death was monitored using xCELLigence RTCA MP instrument (Agilent Technologies).

HPK1 [3] = biological target: T1, HPK1 (Homo sapiens, UniProt Q92918); assay: Western blotting of TCR-induced signaling in HKO-EV, HKO-HPK1.WT and HKO-HPK1.K46E Jurkat cells; assay type: cell-based; parameters: expressed in transfected cells; host or cells: HPK1-knockout Jurkat single clone (EdiGene), lentiviral transduction, blasticidin-selected pool; conditions: compound pretreatment, OKT3 stimulation; for SLP76-S376 phosphorylation (Western blot): HKO-HPK1.WT Jurkat cells; for ERK1/2 phosphorylation (Western blot): HKO-HPK1.WT vs HKO-EV and HKO-HPK1.K46E Jurkat cells
T1 sequence (Q92918 whole entry): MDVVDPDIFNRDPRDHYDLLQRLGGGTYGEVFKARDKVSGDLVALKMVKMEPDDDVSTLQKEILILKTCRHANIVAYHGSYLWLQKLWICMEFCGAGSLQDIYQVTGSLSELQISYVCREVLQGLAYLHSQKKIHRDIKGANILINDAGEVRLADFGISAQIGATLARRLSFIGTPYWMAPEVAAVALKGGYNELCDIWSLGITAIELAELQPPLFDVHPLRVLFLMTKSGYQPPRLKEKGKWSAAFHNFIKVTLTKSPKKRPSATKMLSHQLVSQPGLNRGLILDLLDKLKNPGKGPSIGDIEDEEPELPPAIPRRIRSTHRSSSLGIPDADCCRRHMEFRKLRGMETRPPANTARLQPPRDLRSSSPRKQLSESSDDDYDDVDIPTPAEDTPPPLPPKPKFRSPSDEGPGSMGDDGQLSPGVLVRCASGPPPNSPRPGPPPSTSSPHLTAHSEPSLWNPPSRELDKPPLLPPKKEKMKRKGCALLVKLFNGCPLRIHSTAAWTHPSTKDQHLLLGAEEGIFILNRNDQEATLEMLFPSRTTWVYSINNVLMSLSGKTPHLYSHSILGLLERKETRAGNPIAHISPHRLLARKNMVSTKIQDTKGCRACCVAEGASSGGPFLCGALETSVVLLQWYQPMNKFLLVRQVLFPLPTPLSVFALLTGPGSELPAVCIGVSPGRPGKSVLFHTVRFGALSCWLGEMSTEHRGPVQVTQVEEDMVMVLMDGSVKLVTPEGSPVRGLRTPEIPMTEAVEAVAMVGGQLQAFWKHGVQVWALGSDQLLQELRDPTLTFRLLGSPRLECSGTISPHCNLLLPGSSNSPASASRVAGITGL
From the text: The Jurkat line with a homozygous knockout of HPK1 (HKO) single clone was purchased from EdiGene (Beijing, China). HKO-EV (HKO empty vector control), HKO-HPK1.WT (HKO overexpressing wildtype HPK1), and HKO-HPK1.K46E (HKO overexpressing kinase-dead HPK1) Jurkat pools were generated by lenti-vector transduction. In brief, the coding sequences of different HPK1 mutants were inserted into a FG12-BSD plasmid with the human phosphoglycerate kinase (hPGK) promoter (GenScript, Nanjing, China). Thereafter, 293T cells (ATCC) were transfected with those plasmids together with lentivirus packing plasmids pMD2.G and psPAX2. The culture medium containing virus was collected and used to infect HKO cells. Blasticidin 10 µg/mL (InvivoGen, San Diego, CA, USA) was used for the selection of infected cells. HPK1-knockin Jurkat cells (HPK1 K46*) and kinase-inactivated HPK1-knockin Jurkat cells (HPK1 K46E) were produced by introducing a Lys46Ter mutation or a Lys46Glu mutation to the HPK1 gene, respectively.
(§3) Jurkat cells were activated by anti-human CD3 (OKT3; 10 μg/mL, Thermo Fisher Scientific), while human peripheral blood cells were activated through TCR crosslinking by biotinylated OKT3 and streptavidin (7.5 μg/mL; Thermo Fisher Scientific). The cells were lysed at various time points post stimulation, and the lysate was denatured. The obtained samples were subjected to electrophoresis, and the separated proteins were electro-transferred onto a nitrocellulose membrane. Thereafter, the membranes were incubated with antibodies against HPK1 (E1C3L), phosphorylated SLP76-S376 (p-SLP76-S376; D7S1K), SLP76 (D1R1A), p-ERK1/2-T202/Y204 (D13.14.4E), p-PLCγ1-Y783 (polyclonal), PLCγ1 (D9H10), and glyceraldehyde-3-phosphate dehydrogenase (GAPDH; D4C6R). All antibodies used for immunoblotting were purchased from Cell Signaling Technology (Danvers, MA, USA).

HPK1 [4] = biological target: T1, HPK1; assay: HPK1 degradation in Jurkat cells (intracellular staining, flow cytometry); assay type: cell-based; parameters: Compound 2 degraded HPK1 in CD4^+ and CD8^+ T cells in a concentration-dependent manner; host or cells: human PBMCs (CD4+ and CD8+ T cells) from healthy donors; conditions: for HPK1 degradation at high concentrations: 24 h treatment, ≥1,000 nM
Protocol: as §1, §2

HPK1 [5] = biological target: T1, HPK1; assay: HPK1 degradation in CD4+ and CD8+ T cells of human PBMCs (flow cytometry); assay type: cell-based; parameters: Compound 2 degraded HPK1 in CD4^+ and CD8^+ T cells in a concentration-dependent manner; host or cells: human PBMCs (CD4+ and CD8+ T cells) from healthy donors; conditions: for HPK1 degradation at 1,000 nM / HPK1 degradation at high concentrations: CD4+ and CD8+ T cells in human PBMCs; for HPK1 degradation at 1,000 nM: 24 h, 1,000 nM; for HPK1 degradation at high concentrations: 24 h, ≥3,000 nM; for DC50: 24 h treatment, read-out: HPK1 degradation EC50
Protocol: as §1, §2

HPK1 [6] = biological target: T1, HPK1; assay: Western blotting of TCR-induced signaling in human PBMCs after TCR crosslinking; assay type: cell-based; parameters: Compound 2 degraded HPK1 in CD4^+ and CD8^+ T cells in a concentration-dependent manner; host or cells: human PBMCs (CD4+ and CD8+ T cells) from healthy donors
Protocol: as §1, §3

[7] = tested on: CD8+ T cells of human PBMCs; assay: Granzyme B levels in CD8+ T cells of human PBMCs after OKT3 stimulation; assay type: cell-based; conditions: human PBMCs pretreated 24 h, OKT3 stimulation 24 h
Protocol: as §2

human PBMCs = assay: IL-2 and IFN-γ production by human PBMCs co-cultured with HEK293/OS8/PD-L1; assay type: cell-based; conditions: human PBMCs pretreated 24 h, co-culture with HEK293/OS8/PD-L1 24 h
Protocol: as §1
Jurkat cells were seeded in triplicates into those plates for stimulation and incubated for 24 h. Alternatively, Jurkat cells were pretreated with various concentrations of the aforementioned compounds for 24 h prior to stimulation with aforementioned immobilized OKT3. For cytokine analysis of human PBMCs, the cells were seeded into U-bottomed 96-well plates (Corning Inc.) and treated with the compounds for 24 h prior to stimulation. […] Interleukin 2 (IL-2) and interferon-gamma (IFN-γ) in the supernatant were detected using the HTRF Human IL-2 Detection Kit and AlphaLISA Biotin-Free Human IFNγ Detection Kit (both obtained from Revvity, Waltham, MA, USA) according to the instructions provided by the manufacturer. […]

[8] = 300 nM and 1,000 nM pretreatment

Row | SMILES | IC50 [1] [nM] | IL-2 production EC50 relative to Compound 2 (Jurkat cells) | IL-2 production, maximal level (Jurkat cells) | TCR-induced phosphorylation on SLP76-S376 [2] | Cytotoxicity of pretreated PBMCs against HepG2 cells (HepG2 cells) | SLP76-S376 phosphorylation (Western blot) (HPK1 [3]) | ERK1/2 phosphorylation (Western blot) (HPK1 [3]) | HPK1 degradation at high concentrations (HPK1 [4]) | HPK1 degradation at 1,000 nM (HPK1 [5]) | HPK1 degradation at high concentrations (HPK1 [5]) | HPK1 levels (Western blot) (HPK1 [6]; [8]) | SLP76-S376 phosphorylation (Western blot) (HPK1 [6]; [8]) | Granzyme B levels in CD8+ T cells [7] | other results
1 | Cc1cc(-c2cnc3[nH]cc(-c4ccc(C(=O)N(C)C)cc4)c3c2)cc2c1CN(CCC(=O)N1CCN(c3ccc(N4CCC(=O)N(C)C4=O)cc3)CC1)CC2 [Compound 3, N,N-dimethyl-4-(5-(8-methyl-2-(3-(4-(4-(3-methyl-2,4-dioxotetrahydropyrimidin-1(2H)-yl)phenyl)piperazin-1-yl)-3-oxopropyl)-1,2,3,4-tetrahydroisoquinolin-6-yl)-1H-pyrrolo[2,3-b]pyridin-3-yl)benzamide] | 120 | higher | comparable with that induced by Compound 2 | effectively reduced | enhanced HepG2 killing ability of PBMCs, but to a less extent than Compound 1 or Compound 2 | attenuated SLP76-S376 phosphorylation | enhanced ERK1/2 phosphorylation only in HKO-HPK1.WT Jurkat cells | resulted in the degradation of HPK1 | did not significantly degrade HPK1 | limited HPK1 degradation | without significantly affecting HPK1 levels | reduced or almost completely attenuated SLP76-S376 phosphorylation | – | –
2 | Cc1cc(-c2cnc3[nH]cc(-c4ccc(C(=O)N(C)C)cc4)c3c2)cc2c1CN(C)CC2 [Compound 1, 4-(5-(2,8-dimethyl-1,2,3,4-tetrahydroisoquinolin-6-yl)-1H-pyrrolo[2,3-b]pyridin-3-yl)-N,N-dimethylbenzamide] | 120 | higher | comparable with that induced by Compound 2 | effectively reduced | – | attenuated SLP76-S376 phosphorylation | enhanced ERK1/2 phosphorylation only in HKO-HPK1.WT Jurkat cells | resulted in the degradation of HPK1 | did not significantly degrade HPK1 | limited HPK1 degradation | without significantly affecting HPK1 levels | reduced or almost completely attenuated SLP76-S376 phosphorylation | enhanced granzyme B levels | –
3 | Cc1cc(-c2cnc3[nH]cc(-c4ccc(C(=O)N(C)C)cc4)c3c2)cc2c1CN(CCC(=O)N1CCN(c3ccc(N4CCC(=O)NC4=O)cc3)CC1)CC2 [Compound 2, 4-(5-(2-(3-(4-(4-(2,4-dioxotetrahydropyrimidin-1(2H)-yl)phenyl)piperazin-1-yl)-3-oxopropyl)-8-methyl-1,2,3,4-tetrahydroisoquinolin-6-yl)-1H-pyrrolo[2,3-b]pyridin-3-yl)-N,N-dimethylbenzamide] | ~20 | – | – | effectively reduced | did not exhibited stronger cytotoxicity against HepG2 cells | attenuated SLP76-S376 phosphorylation | enhanced ERK1/2 phosphorylation only in HKO-HPK1.WT Jurkat cells | – | – | – | – | – | enhanced granzyme B levels | EC50 (Jurkat cells; Homo sapiens): ~200 nM; IC50 for SLP76-S376 phosphorylation relative to the other two compounds [2]: lower in both populations; Maximal enhancement of TCR-induced IL-2 and IFN-γ production (human PBMCs): not stronger than that after treatment with Compound 1; HPK1 degradation, time course (HPK1 [4]; 1 μM, within 24 h): effectively degraded HPK1; DC50 (HPK1 [5]; CD4+ T cells in human PBMCs): 11.5 nM; DC50 (HPK1 [5]; CD8+ T cells in human PBMCs): 26 nM; HPK1 levels (Western blot) (HPK1 [6]; 300 nM pretreatment): almost complete degradation of HPK1; SLP76-S376 phosphorylation (Western blot) (HPK1 [6]; 300 nM pretreatment): attenuation of SLP76-S376 phosphorylation

Source: PMC11839646, “HPK1 kinase inhibitor: a sufficient approach to target HPK1 to modulate T cell activation in cancer immunotherapy compared with degraders” (Frontiers in Immunology, 2025)
